Test results from patent US11173151B2, “Substituted triazole derivatives and uses thereof” (BAYER AKTIENGESELLSCHAFT, priority 2017, dated 2021).
Like-named read-outs stand apart in the source and are kept apart here.

Tests used:
human V2 receptor = molecular target: T1, human V2 receptor (Homo sapiens, UniProt P30518); experiment: Cellular in vitro assay for determining vasopressin receptor activity, V2 receptor cell line (CHO, CRE-luciferase); format: cell-based; settings: CHO cell line transfected with human V2 receptor, [Arg8]-vasopressin at EC50 concentration, read-out: IC50 hV2
T1 construct: expressed in transfected cells; host or cells: CHO K1 (ATCC) expressing firefly luciferase under a CRE-responsive promoter
T1 sequence (P30518 whole entry): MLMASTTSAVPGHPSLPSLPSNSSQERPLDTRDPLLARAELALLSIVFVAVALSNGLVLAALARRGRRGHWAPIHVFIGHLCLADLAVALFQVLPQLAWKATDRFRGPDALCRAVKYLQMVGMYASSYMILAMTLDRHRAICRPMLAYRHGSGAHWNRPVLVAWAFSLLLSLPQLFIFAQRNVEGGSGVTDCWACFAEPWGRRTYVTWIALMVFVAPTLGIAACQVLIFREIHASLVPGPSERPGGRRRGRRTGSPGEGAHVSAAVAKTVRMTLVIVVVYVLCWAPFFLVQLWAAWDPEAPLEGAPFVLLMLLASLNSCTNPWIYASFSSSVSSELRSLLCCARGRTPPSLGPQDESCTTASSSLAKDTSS

human V1a receptor = molecular target: T2, human V1a receptor (Homo sapiens, UniProt P37288); experiment: Cellular in vitro assay for determining vasopressin receptor activity, V1a receptor cell line (CHO, aequorin luminescence); format: cell-based; settings: for IC50: CHO cell line transfected with human V1a receptor, [Arg]-vasopressin at EC50 concentration, read-out: IC50 hV1a; for ratio IC50 hV2/hV1a: selectivity ratio IC50 hV2 / IC50 hV1a
T2 construct: expressed in transfected cells; host or cells: CHO K1 (ATCC), also stably transfected with a modified aequorin
T2 sequence (P37288 whole entry): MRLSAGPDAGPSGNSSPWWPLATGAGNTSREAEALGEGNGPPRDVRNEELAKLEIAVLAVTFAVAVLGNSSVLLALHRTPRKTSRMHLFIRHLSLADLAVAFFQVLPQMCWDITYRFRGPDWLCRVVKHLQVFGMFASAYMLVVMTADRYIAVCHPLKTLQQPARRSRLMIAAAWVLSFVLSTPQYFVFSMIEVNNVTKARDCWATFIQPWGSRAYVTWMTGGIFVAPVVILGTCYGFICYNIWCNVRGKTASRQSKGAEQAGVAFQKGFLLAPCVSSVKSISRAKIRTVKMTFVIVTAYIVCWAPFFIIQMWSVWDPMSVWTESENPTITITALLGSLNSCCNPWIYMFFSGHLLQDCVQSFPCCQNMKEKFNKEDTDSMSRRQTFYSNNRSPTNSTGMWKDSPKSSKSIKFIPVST
In short: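 Antagonism is measured in stable CHO K1 transfectants coexpressing the Gαq-coupled receptor and a calcium-sensitive aequorin photoprotein. Agonist challenge uses [Arg]-vasopressin at EC50 after a 10-minute compound exposure; IC50 values come from the luminescence signal.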

SMILES	IC50 (human V2 receptor)	IC50 (human V1a receptor)	ratio IC50 hV2/hV1a (human V1a receptor)	IC50 (human V2 receptor; 3 hours)
O=C(N[C@H]1C[C@H]1F)c1ccncc1-n1nc(Cn2nc(-c3ccc(Cl)cc3)n(C[C@H](O)C(F)(F)F)c2=O)nc1C(=O)N1CCS(=O)(=O)CC1 (racemic) [Example 523, 3-{3-({3-(4-Chlorophenyl)-5-oxo-4-[(2S)-3,3,3-trifluoro-2-hydroxypropyl]-4,5-dihydro-1H-1,2,4-triazol-1-yl}methyl)-5-[(1,1-dioxidothiomorpholin-4-yl)carbonyl]-1H-1,2,4-triazol-1-yl}-N-[2-fluorocyclopropyl]pyridine-4-carboxamide]	1100 nM	365 nM	3.0	
O=C1CN(C(=O)c2nc(Cn3nc(-c4ccc(Cl)cc4)n(C[C@H](O)C(F)(F)F)c3=O)nn2-c2ncccc2C(=O)N[C@H]2C[C@H]2F)CCN1 (racemic) [Example 527, 2-{3-({3-(4-chlorophenyl)-5-oxo-4-[(2S)-3,3,3-trifluoro-2-hydroxypropyl]-4,5-dihydro-1H-1,2,4-triazol-1-yl}methyl)-5-[(3-oxopiperazin-1-yl)carbonyl]-1H-1,2,4-triazol-1-yl}-N-[2-fluorocyclopropyl]pyridine-3-carboxamide]	1530 nM	1080 nM	1.4	
O=C(N[C@H]1C[C@H]1F)c1cccnc1-n1nc(Cn2nc(-c3ccc(Cl)cc3)n(C[C@H](O)C(F)(F)F)c2=O)nc1C(=O)N1CCS(=O)(=O)CC1 (racemic) [Example 533, 2-{3-({3-(4-Chlorophenyl)-5-oxo-4-[(2S)-3,3,3-trifluoro-2-hydroxypropyl]-4,5-dihydro-1H-1,2,4-triazol-1-yl}methyl)-5-[(1,1-dioxidothiomorpholin-4-yl)carbonyl]-1H-1,2,4-triazol-1-yl}-N-[2-fluorocyclopropyl]pyridine-3-carboxamide]	3180 nM	146 nM	21.8	
CC(C)(N)CNC(=O)c1nc(Cn2nc(-c3ccc(Cl)cc3)n(C[C@H](O)C(F)(F)F)c2=O)nn1-c1cnccc1C(=O)N[C@H]1C[C@H]1F (racemic) [Example 535, 3-{5-[(2-amino-2-methylpropyl)carbamoyl]-3-({3-(4-chlorophenyl)-5-oxo-4-[(2S)-3,3,3-trifluoro-2-hydroxypropyl]-4,5-dihydro-1H-1,2,4-triazol-1-yl}methyl)-1H-1,2,4-triazol-1-yl}-N-[2-fluorocyclopropyl]pyridine-4-carboxamide]	4620 nM	82.5 nM	56.0	
O=C(Nc1ccncc1-n1cnc(Cn2nc(-c3ccc(Cl)cc3)n(C[C@H](O)C(F)(F)F)c2=O)n1)[C@@H]1C[C@@H]1F (single isomer, unassigned) [Example 35]		10.5 nM	52.7	553 nM
O=C(Nc1cccnc1-n1cnc(Cn2nc(-c3ccc(Cl)cc3)n(C[C@H](O)C(F)(F)F)c2=O)n1)C1CC1(F)F (single isomer, unassigned) [Example 42]		23 nM	27.0	620 nM
O=C(Nc1cccnc1-n1cnc(Cn2nc(-c3ccc(Cl)cc3)n(C[C@H](O)C(F)(F)F)c2=O)n1)C1CC1(F)F (single isomer, unassigned) [Example 43]		5.85 nM	36.5	213 nM
O=C(Nc1cccnc1-n1cnc(Cn2nc(-c3ccc(Cl)cc3)n(C[C@H](O)C(F)(F)F)c2=O)n1)C1CCS(=O)(=O)C1 (single isomer, unassigned) [Example 51]		5 nM	153.0	765 nM
O=C(Nc1cccnc1-n1cnc(Cn2nc(-c3ccc(Cl)cc3)n(C[C@H](O)C(F)(F)F)c2=O)n1)C1CCS(=O)(=O)C1 (single isomer, unassigned) [Example 52]		11.5 nM	173.9	2000 nM
O=C(Nc1cccnc1-n1cnc(Cn2nc(-c3ccc(Cl)cc3)n(C[C@H](O)C(F)(F)F)c2=O)n1)C1CC1F (single isomer, unassigned) [Example 55]		3.65 nM	190.4	695 nM
O=C(Nc1cccnc1-n1cnc(Cn2nc(-c3ccc(Cl)cc3)n(C[C@H](O)C(F)(F)F)c2=O)n1)C1CC1F (single isomer, unassigned) [Example 56]		4.4 nM	92.0	405 nM
O=C(Nc1cccnc1-n1cnc(Cn2nc(-c3ccc(Cl)cc3)n(C[C@H](O)C(F)(F)F)c2=O)n1)C1CC1F (single isomer, unassigned) [Example 60]		4.25 nM	208.2	885 nM
O=C(Nc1cccnc1-n1cnc(Cn2nc(-c3ccc(Cl)cc3)n(C[C@H](O)C(F)(F)F)c2=O)n1)C1CC1F (single isomer, unassigned) [Example 61]		4.35 nM	111.5	485 nM
O=C(Nc1ncccc1-n1cnc(Cn2nc(-c3ccc(Cl)cc3)n(C[C@H](O)C(F)(F)F)c2=O)n1)C1CC1F (single isomer, unassigned) [Example 77]		12 nM	195.8	2350 nM
O=C(Nc1ncccc1-n1cnc(Cn2nc(-c3ccc(Cl)cc3)n(C[C@H](O)C(F)(F)F)c2=O)n1)C1CC1F (single isomer, unassigned) [Example 78]		19.5 nM	187.2	3650 nM
O=C(Nc1ncccc1-n1cnc(Cn2nc(-c3ccc(Cl)cc3)n(C[C@H](O)C(F)(F)F)c2=O)n1)C1CC1F (single isomer, unassigned) [Example 86]		4.5 nM	311.1	1400 nM
O=C1CCC(NC(=O)c2ccccc2-n2cnc(Cn3nc(-c4ccc(Cl)cc4)n(CC(O)C(F)(F)F)c3=O)n2)CN1 (single isomer, unassigned) [Example 192, 2-[3-({3-(4-Chlorophenyl)-5-oxo-4-[3,3,3-trifluoro-2-hydroxypropyl]-4,5-dihydro-1H-1,2,4-triazol-1-yl}methyl)-1H-1,2,4-triazol-1-yl]-N-[6-oxopiperidin-3-yl]benzamide]		74.5 nM	98.7	7350 nM
O=C1CCC(NC(=O)c2ccccc2-n2cnc(Cn3nc(-c4ccc(Cl)cc4)n(CC(O)C(F)(F)F)c3=O)n2)CN1 (single isomer, unassigned) [Example 193, 2-[3-({3-(4-Chlorophenyl)-5-oxo-4-[3,3,3-trifluoro-2-hydroxypropyl]-4,5-dihydro-1H-1,2,4-triazol-1-yl}methyl)-1H-1,2,4-triazol-1-yl]-N-[6-oxopiperidin-3-yl]benzamide]		80 nM	38.8	3100 nM
CC(C)(N)CNc1ccncc1-n1cnc(Cn2nc(-c3ccc(Cl)cc3)n(C[C@H](O)C(F)(F)F)c2=O)n1 [Example 1, 2-[(1-{4-[(2-Amino-2-methylpropyl)amino]pyridin-3-yl}-1H-1,2,4-triazol-3-yl)methyl]-5-(4-chlorophenyl)-4-[(2S)-3,3,3-trifluoro-2-hydroxypropyl]-2,4-dihydro-3H-1,2,4-triazol-3-one]		1950 nM	4.0	7870 nM
CC(C)(O)CNc1ccncc1-n1cnc(Cn2nc(-c3ccc(Cl)cc3)n(C[C@H](O)C(F)(F)F)c2=O)n1 [Example 2, 5-(4-Chlorophenyl)-2-[(1-{4-[(2-hydroxy-2-methylpropyl)amino]pyridin-3-yl}-1H-1,2,4-triazol-3-yl)methyl]-4-[(2S)-3,3,3-trifluoro-2-hydroxypropyl]-2,4-dihydro-3H-1,2,4-triazol-3-one]		585 nM	0.4	210 nM
NC1(CNc2ccncc2-n2cnc(Cn3nc(-c4ccc(Cl)cc4)n(C[C@H](O)C(F)(F)F)c3=O)n2)CC1 [Example 3, 2-{[1-(4-{[(1-Aminocyclopropyl)methyl]amino}pyridin-3-yl)-1H-1,2,4-triazol-3-yl]methyl}-5-(4-chlorophenyl)-4-[(2S)-3,3,3-trifluoro-2-hydroxypropyl]-2,4-dihydro-3H-1,2,4-triazol-3-one]		1220 nM	0.6	730 nM
O=c1n(Cc2ncn(-c3cnccc3NCC3(O)CC3)n2)nc(-c2ccc(Cl)cc2)n1C[C@H](O)C(F)(F)F [Example 4, 5-(4-Chlorophenyl)-2-{[1-(4-{[(1-hydroxycyclopropyl)methyl]amino}pyridin-3-yl)-1H-1,2,4-triazol-3-yl]methyl}-4-[(2S)-3,3,3-trifluoro-2-hydroxypropyl]-2,4-dihydro-3H-1,2,4-triazol-3-one]		115 nM	1.1	125 nM
O=C1CN(c2ccncc2-n2cnc(Cn3nc(-c4ccc(Cl)cc4)n(C[C@H](O)C(F)(F)F)c3=O)n2)CCN1 [Example 5, 4-{3-[3-({3-(4-Chlorophenyl)-5-oxo-4-[(2S)-3,3,3-trifluoro-2-hydroxypropyl]-4,5-dihydro-1H-1,2,4-triazol-1-yl}methyl)-1H-1,2,4-triazol-1-yl]pyridin-4-yl}piperazin-2-one]		180 nM	16.7	3000 nM
O=c1n(Cc2ncn(-c3cnccc3N3CCS(=O)(=O)CC3)n2)nc(-c2ccc(Cl)cc2)n1C[C@H](O)C(F)(F)F [Example 6, 5-(4-Chlorophenyl)-2-({1-[4-(1,1-dioxidothiomorpholin-4-yl)pyridin-3-yl]-1H-1,2,4-triazol-3-yl}methyl)-4-[(2S)-3,3,3-trifluoro-2-hydroxypropyl]-2,4-dihydro-3H-1,2,4-triazol-3-one]		71.5 nM	35.0	2500 nM
